Source: publication PMC10656490, “Sequence-based prediction of the intrinsic solubility of peptides containing non-natural amino acids” (Nature Communications, 2023)
Where two headings read alike, the source gives them in different places. Where a SMILES comes first, the peptide text is derived from it. [ ]: non-standard residue; d: D form. Cha = N[C@@H](CC1CCCCC1)C(=O)O; Cit = NC(=O)NCCC[C@H](N)C(=O)O; Aib = CC(C)(N)C(=O)O

Legend:
[1] = Solubility by ultracentrifugation (GLP-1 variants); assay type: physicochemical; details: for solubility: 10 mM citrate 10 mM phosphate buffer, pH 7, GLP-1 variants, 2 mg/mL in 10 mM citrate 10 mM phosphate pH 7, 30 min 500,000 g 4 °C
Description: (§1) Relative solubility was measured using a recently developed PEG precipitation assay. For all PYY variants the standard assay worked well, and no changes had to be implemented (Fig. 2a). […] Moreover, to ensure that the results stemming from the AMS assay are consistent and reliable, we performed the 18 A experiments twice independently on different days. The results confirmed that they are indeed replicable, and we were therefore confident to use them for the validation of our approach (Supplementary Fig. 3). […] Even at final concentrations of 0.33 mg/mL (instead of 1 mg/mL) most variants remained insoluble. We used ultracentrifugation to determine the relative solubilities of the GLP-1 variants (Table 3). To confirm the reliability of this method we replicated the results on a different day with the same stock solutions (Supplementary Fig. 4).
(§2) Aliquots of 1 mg were prepared from the purified and lyophilised stocks. […] Briefly, a precipitant is titrated in increasing concentration to a fixed concentration of protein to induce precipitation of the protein. The samples are incubated for 48 h at 4° after mixing. The samples are centrifuged and the remaining protein concentration is measured in the supernatant using a plate reader. PYY and 18 A variants were dissolved in 10 mM citrate 10 mM phosphate buffer at pH 7 for a final concentration of 3 mg/mL. The assay was run with 50% 6000 PEG for PYY and with 3.8 M AMS for 18 A. To improve throughput, a multichannel robot was employed to measure several peptides at once with the workflow being kept the same as described previously. […] 120 µL of each sample were centrifuged using an OptimaTLX Ultracentrifuge and spinning for 30 min at 500,000 g at 4 °C. The supernatant was removed, and the peptide concentration was measured using a NanoDrop.

[2] = Ammonium sulphate (AMS) precipitation relative solubility assay (18 A variants); assay type: physicochemical
Description: as §1, §2

[3] = run 1, read-out: Run 1 solubility (peptide concentration in supernatant)
[4] = run 2, read-out: Run 2 solubility (peptide concentration in supernatant)
[5] = GLP1 variants, Figure 3c, in mg/mL
[6] = source data Supplementary Fig. 4, GLP-1 variants, 2 stands where Table 3 prints S, in mg/mL

## CC[C@H](C)[C@H](NC(=O)[C@H](Cc1ccccc1)NC(=O)[C@H](CCC(=O)O)NC(=O)[C@H](CCCCN)NC(=O)[C@H](C)NC(=O)[C@H](CC1CCCCC1)NC(=O)[C@H](CCC(N)=O)NC(=O)CNC(=O)[C@H](CCC(=O)O)NC(=O)[C@H](CC(C)C)NC(=O)[C@H](Cc1ccc(O)cc1)NC(=O)[C@H](CO)NC(=O)[C@H](CO)NC(=O)[C@@H](NC(=O)[C@H](CC(=O)O)NC(=O)[C@H](CO)NC(=O)[C@@H](NC(=O)[C@H](Cc1ccccc1)NC(=O)[C@@H](NC(=O)CNC(=O)[C@H](CCC(=O)O)NC(=O)[C@H](C)NC(=O)[C@@H](N)Cc1c[nH]cn1)[C@@H](C)O)[C@@H](C)O)C(C)C)C(=O)N[C@@H](C)C(=O)N[C@@H](Cc1c[nH]c2ccccc12)C(=O)N[C@@H](CC(C)C)C(=O)N[C@H](C(=O)N[C@@H](CCCCN)C(=O)NCC(=O)N[C@@H](CCCNC(N)=O)C(N)=O)C(C)C [Compound 7] (H-HAEGTFTSDVSSYLEGQ[Cha]AKEFIAWLVKG[Cit]-NH2; N-terminus assumed)
[1]; [3]
  solubility: 840 µg/mL
[1]; [4]
  solubility: 820 µg/mL
[1]; [5]
  Ultracentrifugation: 0.8319
[1]; [6]
  First Run: 0.8416
  Second Run: 0.8222

## CC(=O)N[C@@H](CC(=O)O)C(=O)N[C@@H](Cc1c[nH]c2ccccc12)C(=O)N[C@@H](Cc1ccccc1)C(=O)N[C@@H](CCCCN)C(=O)N[C@@H](C)C(=O)N[C@@H](Cc1ccccc1)C(=O)N[C@@H](Cc1ccc(O)cc1)C(=O)N[C@@H](CC(=O)O)C(=O)N[C@@H](CCCCN)C(=O)N[C@H](C(=O)N[C@@H](C)C(=O)N[C@@H](CCC(=O)O)C(=O)N[C@@H](CCCCN)C(=O)N[C@@H](Cc1ccccc1)C(=O)N[C@@H](CCCCN)C(=O)N[C@@H](CCC(=O)O)C(=O)N[C@@H](C)C(=O)N[C@@H](Cc1ccccc1)C(N)=O)C(C)C [Compound 11, reference compound] (Ac-DWFKAFYDKVAEKFKEAF-NH2)
[2]
  PEG1/2: 1.626
  Second Run: 1.058

## CC(=O)N[C@@H](CC(=O)O)C(=O)N[C@@H](Cc1c[nH]c2ccccc12)C(=O)N[C@@H](Cc1ccccc1)C(=O)NC(C)(C)C(=O)N[C@@H](C)C(=O)N[C@@H](Cc1ccccc1)C(=O)N[C@@H](Cc1ccc(O)cc1)C(=O)N[C@@H](CC(=O)O)C(=O)N[C@@H](CCCCN)C(=O)N[C@H](C(=O)N[C@@H](C)C(=O)N[C@@H](CCC(=O)O)C(=O)N[C@@H](CCCCN)C(=O)N[C@@H](CC1CCCCC1)C(=O)N[C@@H](CCCCN)C(=O)N[C@@H](CCC(=O)O)C(=O)N[C@@H](C)C(=O)N[C@@H](Cc1ccccc1)C(N)=O)C(C)C [Aib, Cha] (Ac-DWF[Aib]AFYDKVAEK[Cha]KEAF-NH2)
[2]; 18A variants, Figure 3b
  PEG1/2: 1.604
[2]; 18A variants, precipitation midpoint, second run, Figure S3
  Second Run: 1.21

## CC[C@H](C)[C@H](NC(=O)[C@H](Cc1ccccc1)NC(=O)[C@H](CCC(=O)O)NC(=O)[C@H](CCCCN)NC(=O)[C@H](C)NC(=O)[C@H](CC1CCCCC1)NC(=O)[C@H](CCC(N)=O)NC(=O)CNC(=O)[C@H](CCC(=O)O)NC(=O)[C@H](CC(C)C)NC(=O)[C@H](Cc1ccc(O)cc1)NC(=O)[C@H](CO)NC(=O)[C@H](CO)NC(=O)[C@@H](NC(=O)[C@H](CC(=O)O)NC(=O)[C@H](CO)NC(=O)[C@@H](NC(=O)[C@H](Cc1ccccc1)NC(=O)[C@@H](NC(=O)CNC(=O)[C@H](CCC(=O)O)NC(=O)[C@H](C)NC(=O)[C@@H](N)Cc1c[nH]cn1)[C@@H](C)O)[C@@H](C)O)C(C)C)C(=O)N[C@@H](C)C(=O)N[C@@H](Cc1c[nH]c2ccccc12)C(=O)N[C@@H](CC(C)C)C(=O)N[C@H](C(=O)N[C@@H](CCCCN)C(=O)NCC(=O)N[C@@H](CCCNC(=N)N)C(N)=O)C(C)C [Compound 2] (H-HAEGTFTSDVSSYLEGQ[Cha]AKEFIAWLVKGR-NH2; N-terminus assumed)
[1]; [5]
  Ultracentrifugation: 0
[1]; [6]
  First Run: 0
  Second Run: 0

## CC[C@H](C)[C@H](NC(=O)[C@H](Cc1ccccc1)NC(=O)[C@H](CCC(=O)O)NC(=O)[C@H](CCCCN)NC(=O)[C@H](C)NC(=O)[C@H](CCCNC(N)=O)NC(=O)[C@H](CCC(N)=O)NC(=O)CNC(=O)[C@H](CCC(=O)O)NC(=O)[C@H](CC(C)C)NC(=O)[C@H](Cc1ccc(O)cc1)NC(=O)[C@H](CO)NC(=O)[C@H](CO)NC(=O)[C@@H](NC(=O)[C@H](CC(=O)O)NC(=O)[C@H](CO)NC(=O)[C@@H](NC(=O)[C@H](Cc1ccccc1)NC(=O)[C@@H](NC(=O)CNC(=O)[C@H](CCC(=O)O)NC(=O)[C@H](C)NC(=O)[C@@H](N)Cc1c[nH]cn1)[C@@H](C)O)[C@@H](C)O)C(C)C)C(=O)N[C@@H](C)C(=O)N[C@@H](Cc1c[nH]c2ccccc12)C(=O)N[C@@H](CC(C)C)C(=O)N[C@H](C(=O)N[C@@H](CCCCN)C(=O)NCC(=O)N[C@@H](CCCNC(=N)N)C(N)=O)C(C)C [Compound 6] (H-HAEGTFTSDVSSYLEGQ[Cit]AKEFIAWLVKGR-NH2; N-terminus assumed)
[1]; [3]
  solubility: > 2000 µg/mL
[1]; [4]
  solubility: > 2000 µg/mL
[1]; [5]
  Ultracentrifugation: 2
[1]; [6]
  First Run: 2
  Second Run: 2

## CC[C@H](C)[C@H](NC(=O)[C@H](Cc1ccccc1)NC(=O)[C@H](CCC(=O)O)NC(=O)[C@H](CCCCN)NC(=O)[C@H](C)NC(=O)[C@H](C)NC(=O)[C@H](CCC(N)=O)NC(=O)CNC(=O)[C@H](CCC(=O)O)NC(=O)[C@H](CC(C)C)NC(=O)[C@H](Cc1ccc(O)cc1)NC(=O)[C@H](CO)NC(=O)[C@H](CO)NC(=O)[C@@H](NC(=O)[C@H](CC(=O)O)NC(=O)[C@H](CO)NC(=O)[C@@H](NC(=O)[C@H](Cc1ccccc1)NC(=O)[C@@H](NC(=O)CNC(=O)[C@H](CCC(=O)O)NC(=O)[C@H](C)NC(=O)[C@@H](N)Cc1c[nH]cn1)[C@@H](C)O)[C@@H](C)O)C(C)C)C(=O)N[C@@H](C)C(=O)N[C@@H](Cc1c[nH]c2ccccc12)C(=O)N[C@@H](CC(C)C)C(=O)N[C@H](C(=O)N[C@@H](CCCCN)C(=O)NCC(=O)N[C@@H](CCCNC(=N)N)C(N)=O)C(C)C [Compound 1, reference compound]
[1]; [5]
  Ultracentrifugation: 0.9813
[1]; [6]
  First Run: 0.5803
  Second Run: 1.382

## HAEGTFTS[CHA]VSSYLEGQAAK[NAC]FIAWLVKGR [Compound 9]
[1]
  First Run: 0
  Second Run: 0
  Ultracentrifugation: 0

## CC[C@H](C)[C@H](NC(=O)[C@H](Cc1ccccc1)NC(=O)[C@H](CCC(=O)O)NC(=O)[C@H](CCCCN)NC(=O)[C@H](C)NC(=O)C(C)(C)NC(=O)[C@H](CCC(N)=O)NC(=O)CNC(=O)[C@H](CCC(=O)O)NC(=O)[C@H](CC(C)C)NC(=O)[C@H](Cc1ccc(O)cc1)NC(=O)[C@H](CO)NC(=O)[C@H](CO)NC(=O)[C@@H](NC(=O)[C@H](CC(=O)O)NC(=O)[C@H](CO)NC(=O)[C@@H](NC(=O)[C@H](Cc1ccccc1)NC(=O)[C@@H](NC(=O)CNC(=O)[C@H](CCC(=O)O)NC(=O)[C@H](C)NC(=O)[C@@H](N)Cc1c[nH]cn1)[C@@H](C)O)[C@@H](C)O)C(C)C)C(=O)N[C@@H](C)C(=O)N[C@@H](Cc1c[nH]c2ccccc12)C(=O)N[C@@H](CC(C)C)C(=O)N[C@H](C(=O)N[C@@H](CCCCN)C(=O)NCC(=O)N[C@@H](CCCNC(=N)N)C(N)=O)C(C)C [Compound 5] (H-HAEGTFTSDVSSYLEGQ[Aib]AKEFIAWLVKGR-NH2; N-terminus assumed)
[1]; [3]
  solubility: 90 µg/mL
[1]; [4]
  solubility: 70 µg/mL
[1]; [5]
  Ultracentrifugation: 0.08054
[1]; [6]
  First Run: 0.09475
  Second Run: 0.06633
